This is an account of results in ChEMBL document CHEMBL1151948, “Lactones from Angiopteris caudatiformis” (J Nat Prod, 2009).

In the experiment the test system is HeLa. Kind of experiment: Cytotoxicity against human HeLa cells after 48 hrs by MTT assay. The experiment is classed as functional, cell-based.

pIC50: −log10 of the molar value.

By pIC50 is commonly meant −log10 of the IC50, conventionally taken in molar units.

Consider `C[C@H](O)[C@H]1OC(=O)C[C@H]1O[C@H]1C=CC(=O)O[C@H]1C` [ANGIOPTERLACTONE A], for which the pIC50 is 4.16.
